Test results: PubChem BioAssay (NCI)
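Cells were grown in 96-well plates and exposed to each compound for 48 hours at five concentrations; endpoints were interpolated linearly between bracketing concentrations, or set to the highest concentration if not reached. Definition used: TGI = concentration required for complete inhibition of growth.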 Where a SMILES comes first, the peptide text is derived from it. The star is where a group is joined. Boc = CC(C)(C)OC(=O)*

Key:
Assay in all cases: NCI-60 cell line screen, 48 h
IGROV1 ovarian = test system: IGROV1 ovarian
SN12C renal = test system: SN12C renal
OVCAR-5 ovarian = test system: OVCAR-5 ovarian
DU-145 prostate = test system: DU-145 prostate
HOP-62 NSCLC = test system: HOP-62 NSCLC
DMS 114 small cell lung = test system: DMS 114 small cell lung
SF-539 CNS = test system: SF-539 CNS
M19-MEL melanoma = test system: M19-MEL melanoma
RXF-631 renal = test system: RXF-631 renal
DMS 273 small cell lung = test system: DMS 273 small cell lung
KM20L2 colon = test system: KM20L2 colon
XF 498 CNS = test system: XF 498 CNS
LXFL 529 NSCLC = test system: LXFL 529 NSCLC
CAKI-1 renal = test system: CAKI-1 renal
DLD-1 colon = test system: DLD-1 colon

Row | SMILES | TGI (IGROV1 ovarian) [µM] | TGI (SN12C renal) [µM] | TGI (OVCAR-5 ovarian) [µM] | TGI (DU-145 prostate) [µM] | TGI (HOP-62 NSCLC) [µM] | TGI (DMS 114 small cell lung) [µM] | TGI (SF-539 CNS) [µM] | TGI (M19-MEL melanoma) [µM] | TGI (RXF-631 renal) [µM] | TGI (DMS 273 small cell lung) [µM] | TGI (KM20L2 colon) [µM] | TGI (XF 498 CNS) [µM] | TGI (LXFL 529 NSCLC) [µM] | TGI (CAKI-1 renal) [µM] | TGI (DLD-1 colon) [µM]
1 | O=C1C(Cl)=C(N2CCN(C3=C(Cl)C(=O)c4ccccc4C3=O)CC2)C(=O)c2ccccc21 | 4.11 | 3.09 | 12.7 | 14.4 | 25.5 | 2.64 | 3.15 | 2.91 | 3.46 | 5.44 | 14 | 2.66 | 0.793 | 3.48 | 0.937
2 | c1ccc(C2C3=C(Nc4ncnn42)c2ccccc2C3)cc1 (stereo not given) | > 100 | > 100 | > 100 |  | > 100 | 24.1 | 34.2 | > 100 | > 100 | > 100 | 24.5 | > 100 |  | > 100 | 38
3 | CCOC(=O)C1Cc2[nH]c3ccccc3c2C(C)C1C (stereo not given) | 33.9 | 32.8 | 32.2 |  |  | 58.5 | 31.4 |  |  | 30.4 | 31.8 | 37.9 | 57.1 | 33.9 | 34.5
5 | COC(=O)CC(C(C(=O)OC)C(=O)OC)N1C(=O)OCC1c1ccccc1 (stereo not given) | > 100 | > 100 | > 100 |  | > 100 |  | > 100 | > 100 | > 100 | > 100 | > 100 | > 100 | > 100 | > 100 | > 100
6 | Cn1cc2ccccc2c1-c1nc(N)nc(F)n1 | > 100 | > 100 | > 100 |  | > 100 | > 100 | > 100 | > 100 | > 100 | > 100 | > 100 | > 100 | > 100 | > 100 | > 100
7 | COc1ccc(C2Oc3c(cc(O)c(OC)c3C)[C@@H]2C)cc1OC (stereo not given in full) | > 100 |  | > 100 |  | > 100 | > 100 | > 100 | > 100 | > 100 | > 100 | > 100 | > 100 | > 100 | > 100 | > 100
8 | CC(CN1c2ccccc2Sc2ccccc21)N(C)C (stereo not given) | 34.7 | 29.1 | 32.8 | 34.9 | 28.5 |  | 34 |  |  |  |  |  |  | 34.1 | 
9 | COc1ccc(C(C#N)NNC(=O)c2ccccc2O)cc1OC (stereo not given) | > 100 | > 100 | > 100 |  | > 100 | 12.7 | 6.81 | > 100 |  | 47.2 | 62.5 |  | > 100 | 61.4 | > 100
10 | O=C(O)c1cc2c(cc1CC(Cc1ccc3c(c1)CCC3)C(=O)O)CCC2 (stereo not given) | > 100 | > 100 | > 100 | > 100 | > 100 |  | > 100 |  |  |  |  |  |  | > 100 | 
11 | COC(=O)CNC(=O)C(Cc1ccccc1)NC(=O)C(CCSC)NC(=O)C(Cc1ccc(O)cc1)NC(=O)OC(C)(C)C (stereo not given) (Boc-YMFG-OMe; configuration not given here) | > 100 | > 100 | > 100 | > 100 | > 100 |  | > 100 |  |  |  |  |  |  | > 100 | 
12 | COC(=O)C(CCC#N)(CCC#N)C(=O)OC | > 100 | > 100 |  |  | > 100 | > 100 | > 100 | > 100 |  | > 100 | > 100 | > 100 | > 100 |  | 
